According to publication PMC12384008, “Assessment of Biological Activity of Low Molecular Weight 1,4-Benzoquinone Derivatives” (Biomolecules, 2025):
Values joined by “and” are separate entries in the source; they are usually repeats but may differ in a detail not shown here. Equal entries are not always repeated. Where two headings read alike, the source gives them in different places.

What was measured:
[1] = target: T1, recombinant human AChE (Homo sapiens, UniProt P22303); test: Inhibition of AChE (modified Ellman method, Hunter–Downs evaluation); type: biochemical; conditions: for AChE type of inhibition (in words): according to Hunter–Downs plot; for times less potent as inhibitor of AChE than donepezil: compared to donepezil Ki of ref 50; for times less potent as inhibitor of AChE than galantamine: compared to galantamine Ki of ref 50; for fold higher AChE inhibition potency than meta position counterpart: para compounds 5 and 3 vs meta compounds 4 and 2; for AChE Ki: ATCh 0.05–0.50 mM
T1 construct: gift of Dr Florian Nachon (IRBA, Brétigny-sur-Orge, France)
Description: All measurements of cholinesterase activity were performed in 0.1 M sodium phosphate buffer (pH 7.4). Acetylthiocholine (ATCh), used as a substrate, and thiol reagent 5,5′-dithiobis (2-nitrobenzoic acid) (DTNB) were purchased from Sigma–Aldrich, St. Louis, MO, USA. ATCh was dissolved in water and DTNB in sodium phosphate buffer. Stock solutions of compounds were prepared in DMSO (Gram-mol, Zagreb, Croatia), and all further dilutions were carried out in water. As the source of AChE and BChE, purified native human BChE and recombinant human AChE, both kindly provided by Dr Florian Nachon (Département de Toxicologie, Armed Forces Biomedical Research Institute (IRBA), Brétigny-sur-Orge, France), were used. Both enzymes were diluted in a phosphate buffer containing 0.1% BSA, while further dilutions were in a phosphate buffer with 0.01% BSA.
Enzyme activity measurements were carried out spectrophotometrically using a slightly modified Ellman method, as previously described. […] At least three inhibitor concentrations were used at each substrate concentration in at least three experiments. To calculate the enzyme inhibitor dissociation constants (Ki), the Hunter–Downs equation and the linear regression analysis were used:Ki,app = (vi∙i)/(v0 − vi) = Ki + Ki/KS s where Ki,app stands for the apparent inhibition constant and KS for the enzyme–substrate dissociation constant.
The final content of DMSO in measurements was up to 0.4%, and inhibitory reactions containing more than 0.1% of DMSO were corrected for control reactions containing a corresponding concentration of DMSO. No side interactions of the tested compounds with ATCh or DTNB were detected. Measurements were performed at 25 °C and wavelength λ = 412 nm on a Tecan Infinite M200Pro (Tecan Austria GmbH, Salzburg, Austria), and for all calculations, the statistical package GraphPadPrism 8 (Graph Pad Inc., San Diego, CA, USA) was used.
The selectivity index (SI) was determined using the following ratio: SI = Ki(AChE)/Ki(BChE).

[2] = target: T2, purified native human BChE (Homo sapiens, UniProt P06276); test: biochemical; type: biochemical; conditions: for SI = Ki(AChE)/Ki(BChE): selectivity index
T2 construct: purified native human BChE; tissue gift of Dr Florian Nachon (IRBA, Brétigny-sur-Orge, France)

[3] = ORAC assay (peroxyl radical antioxidant activity); conditions: benzoquinone 50 µM
Description: For the determination of antioxidant capacity by ORAC method, the commercially available OxiSelect™ Oxygen Radical Antioxidant Capacity (ORAC) Activity Assay kit was used (cat. no. STA-345, Cell Biolabs, Inc., San Diego, CA, USA).
The ability of benzoquinones to prevent excessive oxidation caused by ROS was tested using the commercially available OxiSelect™ Oxygen Radical Antioxidant Capacity (ORAC) Activity Assay kit (cat. no. STA-345, Cell Biolabs, Inc., San Diego, CA, USA), following the manufacturer’s protocol with slight adjustments concerning the antioxidant standard final concentrations. Stock solutions of benzoquinones were prepared in DMSO while 5 mM Trolox (used as an antioxidant standard) was provided by the manufacturer as a solution, and their further dilutions were carried out in 50% v/v acetone. Benzoquinones (50 µM) and Trolox (2.5–50 µM) were incubated with 1x Fluorescein Solution in 96-well black microplates at 37 °C for 30 min. After incubation time, Free Radical Initiator Solution was added. The sample reading was performed at 37 °C with an excitation wavelength of 480 nm and an emission wavelength of 520 nm. […] Net AUC values were compared to a Trolox standard curve and antioxidant capacity was presented as Trolox equivalent (TE) concentrations. All readouts were recorded on a plate reader (SpectraMax iD3, Molecular Devices, LLC, San Jose, CA, USA). Calculations were performed using the statistical package GraphPadPrism 8 (Graph Pad Inc, San Diego, CA, USA).
The ORAC assay was used to evaluate the ability of 1,4-benzoquinone derivatives to prevent oxidative damage caused by generation of ROS. In this assay, the quenching of the fluorescent probe (fluorescein) over time by the peroxyl radicals generated by the Free Radical Initiator Solution was monitored. Since the antioxidant capacity of benzoquinones correlates with the fluorescence decay, the peroxyl radical antioxidant activity of the selected compounds was determined by comparing the antioxidant standard curve of Trolox and was expressed as TE (Trolox equivalents)/µM [58].

[4] = target: T3, human recombinant β-secretase (BACE1) (Homo sapiens, UniProt P56817); test: Inhibition of BACE1 (spectrofluorimetric method); type: biochemical; conditions: 50 μM compound; three independent measurements ± SD
T3 construct: purchased Sigma Aldrich, St. Louis, MO, USA S4195
Description: For the determination of BACE1 activity, a human recombinant β-secretase (BACE1) (cat. no. S4195, Sigma Aldrich, St. Louis, MO, USA) as the source of the enzyme and 7-Methoxycoumarin-4-acetyl-[Asn670, Leu671]-Amyloid β/A4 Precursor Protein 770 Fragment 667–676(2,4-dinitrophenyl)Lys-Arg-Arg amide (cat. no. A1472, Sigma Aldrich, St. Louis, MO, USA) as the substrate were used. All measurements were conducted in 50 mM sodium acetate buffer (pH 4.5) with 0.005% Triton X-100. Commercially available β-secretase Inhibitor III (cat. no. 565780, EMD Millipore Corp., Billerica, MA, USA) was used as positive control.
BACE1 activity was determined using a slightly modified spectrofluorimetric method, as described in our previous work. Stock solutions of tested compounds were prepared in DMSO, and further dilutions were carried out in 50 mM sodium acetate buffer (pH 4.5) containing 0.005% Triton X-100. […] To eliminate any potential influence of benzoquinone and/or buffer on the intensity of fluorescence signal, non-enzymatic (buffer, substrate, and benzoquinones) and blank reactions (buffer and substrate only) were also measured and subtracted from inhibition and control reaction, respectively. As a positive control of BACE1 inhibition, commercially available β-secretase Inhibitor III (EMD Millipore Corp., Billerica, MA, USA) was used (5 µM), which inhibited over 90% of BACE1 activity, corresponding to the manufacturer’s data. All fluorescence signal readouts were recorded at room temperature (25 °C) at zero and two hours after incubation at 37 °C, on a plate reader (SpectraMax iD3, Molecular Devices, LLC, San Jose, CA, USA) with excitation at 320 nm and emission at 405 nm.

[5] = set-up: method as in doi:10.2298/JSC220304044D; conditions: previous study ref 56; cited from earlier work
[6] = FRAP assay (ferric-reducing antioxidant power); conditions: 50 and 100 μM
Source text: All chemicals for FRAP antioxidant activity measurements were purchased from Sigma Aldrich (St. Louis, MO, USA), except for FeCl3 and tripyridyltriazine (TPTZ), which were purchased from Kemika, Zagreb, Croatia, and Fluka, Buchs, Switzerland, respectively.
A ferric-reducing antioxidant power (FRAP) assay was used to determine the antioxidant capacity of tested benzoquinones, following a slightly modified protocol by Benzie and Strain [41, 42]. The water-soluble derivative of vitamin E (Trolox) and butylated hydroxytoluene (BHT) were used as standard antioxidants. […] All absorbance readouts were recorded at 593 nm against a blank and corrected for the value of absorbance of corresponding benzoquinone alone. All measurements were performed in three independent experiments. FRAP values were calculated using a standard curve for FeSO4 × 7H2O. All readouts were recorded on a plate reader (SpectraMax iD3, Molecular Devices, LLC, San Jose, CA, USA).

[7] = 400 μM compound (maximum concentration used), 0.1 mM ATCh

T3 sequence (P56817 46-501): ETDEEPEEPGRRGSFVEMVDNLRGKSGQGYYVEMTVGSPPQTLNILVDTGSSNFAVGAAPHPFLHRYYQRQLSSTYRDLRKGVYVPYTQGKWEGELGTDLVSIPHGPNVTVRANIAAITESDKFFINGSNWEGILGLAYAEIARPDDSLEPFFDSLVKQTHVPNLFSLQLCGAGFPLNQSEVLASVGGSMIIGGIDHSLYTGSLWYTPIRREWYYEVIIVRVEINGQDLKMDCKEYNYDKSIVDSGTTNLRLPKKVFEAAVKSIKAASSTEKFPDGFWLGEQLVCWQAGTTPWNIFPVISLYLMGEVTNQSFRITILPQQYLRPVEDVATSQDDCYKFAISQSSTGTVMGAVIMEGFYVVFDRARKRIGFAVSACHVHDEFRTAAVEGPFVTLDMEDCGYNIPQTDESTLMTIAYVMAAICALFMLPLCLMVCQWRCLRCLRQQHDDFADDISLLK
T2 sequence (P06276 29-602): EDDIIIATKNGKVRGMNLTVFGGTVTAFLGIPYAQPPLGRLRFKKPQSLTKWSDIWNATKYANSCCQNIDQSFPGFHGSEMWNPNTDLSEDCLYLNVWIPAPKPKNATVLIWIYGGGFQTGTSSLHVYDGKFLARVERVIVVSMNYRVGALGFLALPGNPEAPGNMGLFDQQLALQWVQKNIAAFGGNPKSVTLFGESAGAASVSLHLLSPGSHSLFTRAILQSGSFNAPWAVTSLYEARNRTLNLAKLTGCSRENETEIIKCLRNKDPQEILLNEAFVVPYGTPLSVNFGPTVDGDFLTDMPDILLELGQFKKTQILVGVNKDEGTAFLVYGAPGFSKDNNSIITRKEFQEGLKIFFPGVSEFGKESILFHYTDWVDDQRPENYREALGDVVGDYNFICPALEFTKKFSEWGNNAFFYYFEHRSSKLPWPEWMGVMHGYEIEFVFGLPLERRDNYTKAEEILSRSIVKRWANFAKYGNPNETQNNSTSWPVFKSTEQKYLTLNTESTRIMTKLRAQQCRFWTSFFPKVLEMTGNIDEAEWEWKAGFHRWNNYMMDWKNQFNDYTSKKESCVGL
T1 sequence (P22303 32-614): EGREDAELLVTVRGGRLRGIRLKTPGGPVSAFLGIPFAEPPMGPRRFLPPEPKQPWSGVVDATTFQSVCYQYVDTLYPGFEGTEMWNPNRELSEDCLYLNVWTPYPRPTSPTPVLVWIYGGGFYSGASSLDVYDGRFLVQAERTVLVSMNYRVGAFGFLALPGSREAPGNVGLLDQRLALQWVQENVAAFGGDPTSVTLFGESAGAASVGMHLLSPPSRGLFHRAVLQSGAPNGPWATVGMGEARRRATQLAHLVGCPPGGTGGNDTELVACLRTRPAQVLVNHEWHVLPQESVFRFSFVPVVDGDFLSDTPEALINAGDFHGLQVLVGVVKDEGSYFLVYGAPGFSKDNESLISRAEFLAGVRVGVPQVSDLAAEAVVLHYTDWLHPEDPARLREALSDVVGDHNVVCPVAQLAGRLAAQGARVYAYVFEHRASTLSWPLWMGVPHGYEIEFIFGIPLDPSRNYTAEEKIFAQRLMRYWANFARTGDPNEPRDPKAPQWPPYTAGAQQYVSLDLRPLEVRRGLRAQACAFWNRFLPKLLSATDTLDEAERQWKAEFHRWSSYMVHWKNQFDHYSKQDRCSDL

Row | Structure (SMILES) | Ki ([1]; read-out: AChE Ki) | Ki ([2]; read-out: BChE Ki) | SI = Ki(AChE)/Ki(BChE) [2] | ORAC value, TE (Trolox equivalents) [3] | inhibition at 50 µM [4] | other results
1 | CC(C)(C)C1=CC(=O)C=C(Sc2ccc(O)cc2)C1=O [Compound 7] | 37 ± 4 µM | 23 ± 2 µM | 1.6 | ≥50 µM | 16.7 ± 2.8% | 
2 | COc1ccc(SC2=CC(=O)C=C(C(C)(C)C)C2=O)cc1 [Compound 8] | 85 ± 5 µM | 29 ± 3 µM | 2.9 | 3.6 ± 0.6 µM |  | 
3 | CC(C)(C)C1=CC(=O)C=C(SCCc2ccccc2)C1=O [Compound 9] | 24 ± 1 µM | 25 ± 3 µM | 0.96 | 5.2 ± 0.0 µM | 27.4% | AChE type of inhibition (in words) [1]: non-competitive; times less potent as inhibitor of AChE than donepezil [1]: ~1166; times less potent as inhibitor of AChE than galantamine [1]: about 54
4 | CC(C)(C)C1=CC(=O)C=C(SCCO)C1=O [Compound 2] | 80 ± 7 µM | 33 ± 1 µM | 2.4 |  |  | AChE type of inhibition (in words) [1]: mixed
5 | CC(C)(C)C1=CC(=O)C(SCCO)=CC1=O [Compound 3] | 57 ± 4 µM | 8.8 ± 0.8 µM | 6.5 | 23.9 ± 1.6 µM | 5.7% | fold higher AChE inhibition potency than meta position counterpart [1]: approximately 1.7
6 | CC(C)(C)C1=CC(=O)C(N2CCC[C@H]2C(=O)O)=CC1=O [Compound 14] | 21 ± 1 µM | 36 ± 2 µM | 0.58 | 19.7 ± 1.6 µM | 10.1 ± 2% | times less potent as inhibitor of AChE than donepezil [1]: ~1166; times less potent as inhibitor of AChE than galantamine [1]: about 54
7 | CC(C)(C)C1=CC(=O)C=C(N[C@@H](Cc2ccccc2)C(=O)O)C1=O [Compound 15] | 59 ± 5 µM | 34 ± 2 µM | 1.7 | 43.2 µM and 43.2 ± 1.6 µM | 15 ± 3.8% | 
8 | CC(C)(C)C1=CC(=O)C=C(SC2CCCC2)C1=O [Compound 4] | 56 ± 8 µM | 30 ± 6 µM | 1.9 |  |  | 
9 | CC(C)(C)C1=CC(=O)C(SC2CCCC2)=CC1=O [Compound 5] | 29 ± 5 µM | 5.2 ± 0.7 µM | 5.6 | 11.0 ± 0.3 µM | 11 ± 2% | AChE type of inhibition (in words) [1]: competitive; times less potent as inhibitor of AChE than donepezil [1]: ~1166; times less potent as inhibitor of AChE than galantamine [1]: about 54; fold higher AChE inhibition potency than meta position counterpart [1]: approximately 1.7
10 | CNC1=CC(=O)C=C(C(C)(C)C)C1=O [Compound 13] |  |  |  |  |  | AChE inhibitory activity [1, 7]: did not show any inhibitory activity; BChE inhibitory activity [2, 7]: did not show any inhibitory activity
11 | CC(C)(C)C1=CC(=O)C=C(Sc2ccccc2)C1=O [Compound 6] | 136 ± 13 µM | 18 ± 4 µM | 7.6 |  |  | DPPH antioxidant activity relative to ascorbic acid [5]: approximately twice as potent as ascorbic acid
12 | CC(C)(C)C1=CC(=O)C=CC1=O [Compound 1, tert-butyl-1,4-benzoquinone] |  |  | 0.95 | 16.7 ± 0.1 µM |  | Ki [1]: 52 ± 6 µM; Ki [2]: 55 ± 5 µM; FRAP antioxidant activity compared to standard antioxidants Trolox and BHT [6]: approximately three times less potent than BHT; DPPH antioxidant activity relative to ascorbic acid [5]: approximately twice as potent as ascorbic acid
13 | CNC1=CC(=O)C(C(C)(C)C)=CC1=O [Compound 12] |  | 228 ± 56 µM |  |  |  | AChE inhibition ([1]; any of the tested concentrations): did not inhibit AChE
14 | CC(C)(C)C1=CC(=O)C=C(Sc2ccc3ccccc3c2)C1=O [Compound 10] | 30 ± 3 µM | 37 ± 5 µM | 0.81 | 9.3 ± 0.5 µM | 26.2% | AChE type of inhibition (in words) [1]: mixed-type
15 | CC(C)(C)C1=CC(=O)C2=C(SCCS2)C1=O [Compound 11] |  |  |  |  |  | DPPH antioxidant activity relative to ascorbic acid [5]: approximately twice as potent as ascorbic acid
